# Measured values reported in article PMC8854719, “Phase 1A/1B dose-escalation and -expansion study to evaluate the safety, pharmacokinetics, food effects and antitumor activity of pamiparib in advanced solid tumours” (British Journal of Cancer, 2021).
# Experiment: Safety and tolerability: adverse events, dose-limiting toxicities, MTD, RP2D (Phase 1A/1B)
# Type: in vivo
# Experimental: This was an open-label, Phase 1, dose-escalation/dose-expansion study, conducted across six study centres in Australia. The dose-escalation phase evaluated twice-daily (BID) and once-daily (QD) dosing, and the dose-expansion phase evaluated the BID RP2D from the dose-escalation phase and food effects (Fig. 1). The food-effects cohort comprised two sequences: fast followed by fed (sequence 1) and fed followed by fast (sequence 2). […] The decision to proceed to the next dose cohort was determined by the Safety Monitoring Committee and followed a modified 3 + 3 escalation scheme. […] When ≥2 DLTs occurred in the first 23 days of a dose level, the next lower dose level was declared the MTD. Safety was monitored and DLTs were assessed in all dose cohorts. […] The food-effects cohort investigated the effects of food on the PK of pamiparib in patients with advanced solid tumours.
# The QD dosing regimen was added as an amendment to the protocol with the purpose of exploring the feasibility of a more convenient regimen.
# Safety and tolerability were assessed throughout the study by monitoring adverse events (AEs), serious AEs, clinical laboratory measurements and physical examinations. Adverse events were categorised according to their severity (National Cancer Institute Common Terminology Criteria for Adverse Events v4.03) and relationship to the study treatment.
# [1] = 101 total patients, dose escalation and expansion
# [2] = BID dose-escalation (2.5–120 mg), 45 patients
# [3] = BID dose-escalation, 45 patients
# [4] = Dose Escalation and Dose Expansion (N=101)
# [5] = Total BID dose escalation (N = 45)
# [6] = Total QD dose escalation (N=19)
smiles,measurement,setting,value
C[C@]12CCCN1CC1=NNC(=O)c3cc(F)cc4[nH]c2c1c34 [pamiparib],Serious AE: nausea,101 patients,4.0%
same,Serious AE: pleural effusion,101 patients,3.0%
same,Serious AE: pneumonia,101 patients,3.0%
same,Serious AE: small intestinal obstruction,101 patients,5.0%
same,Serious AEs,101 patients (44 patients),43.6%
same,Anaemia leading to dose reduction/interruption,101 total patients,21.8%
same,Haematologic AEs leading to dose reduction/interruption,101 total patients,23.8%
same,Neutropenia leading to dose reduction/interruption,101 total patients,5.9%
same,Thrombocytopenia leading to dose reduction/interruption,101 total patients,4.0%
same,Adverse events leading to treatment discontinuation,101 total patients (six patients),5.9%
same,"Anaemia, Grades ≥3",[1],24.8%
same,"Anaemia, all Grades",[1],35.6%
same,"Diarrhoea, Grades ≥3",[1],2.0%
same,"Diarrhoea, all Grades",[1],32.7%
same,"Fatigue, Grades ≥3",[1],3.0%
same,"Fatigue, all Grades",[1],48.5%
same,"Increased alanine aminotransferase, Grades ≥3",[1],5.0%
same,"Increased alanine aminotransferase, all Grades",[1],11.9%
same,"Nausea, Grades ≥3",[1],4.0%
same,"Nausea, all Grades",[1],69.3%
same,"Neutropenia, Grades ≥3",[1],5.9%
same,"Neutropenia, all Grades",[1],9.9%
same,"Vomiting, Grades ≥3",[1],1.0%
same,"Vomiting, all Grades",[1],31.7%
same,Treatment-related grade ≥3 AEs,120-mg BID dosage cohort,60.0%
same,Treatment-related grade ≥3 AEs,160-mg QD dosage cohort,63.6%
same,Patients with a grade ≥3 AE,"BID dosage cohort, dose escalation (N=45)",62.2%
same,"Anaemia, AE",[2],33.3%
same,"Diarrhoea, AE",[2],28.9%
same,"Fatigue, AE",[2],33.3%
same,"Nausea, AE",[2],64.4%
same,"Vomiting, AE",[2],35.6%
same,Treatment-related AEs leading to dose interruptions,[3],31.1%
same,Treatment-related AEs leading to dose reductions,[3],6.7%
same,Maximum tolerated dose (MTD),BID dosing,80 mg
same,Recommended Phase 2 dose (RP2D),BID dosing,60 mg
same,"Abdominal pain, All Grades",[4],17 (16.8) n (%)
same,"Abdominal pain, Grade ≥3",[4],1 (1.0) n (%)
same,"Anemia, All Grades",[4],36 (35.6) n (%)
same,"Anemia, Grade ≥3",[4],25 (24.8) n (%)
same,"Constipation, All Grades",[4],21 (20.8) n (%)
same,"Constipation, Grade ≥3",[4],0 n (%)
same,"Decreased appetite, All Grades",[4],23 (22.8) n (%)
same,"Decreased appetite, Grade ≥3",[4],0 n (%)
same,"Diarrhea, All Grades",[4],33 (32.7) n (%)
same,"Diarrhea, Grade ≥3",[4],2 (2.0) n (%)
same,"Fatigue, All Grades",[4],49 (48.5) n (%)
same,"Fatigue, Grade ≥3",[4],3 (3.0) n (%)
same,"Headache, All Grades",[4],12 (11.9) n (%)
same,"Headache, Grade ≥3",[4],0 n (%)
same,"Increased alanine aminotransferase, All Grades",[4],12 (11.9) n (%)
same,"Increased alanine aminotransferase, Grade ≥3",[4],5 (5.0) n (%)
same,"Increased aspartate aminotransferase, All Grades",[4],10 (9.9) n (%)
same,"Increased aspartate aminotransferase, Grade ≥3",[4],3 (3.0) n (%)
same,"Nausea, All Grades",[4],70 (69.3) n (%)
same,"Nausea, Grade ≥3",[4],4 (4.0) n (%)
same,"Neutropenia, All Grades",[4],10 (9.9) n (%)
same,"Neutropenia, Grade ≥3",[4],6 (5.9) n (%)
same,"Upper respiratory tract infection, All Grades",[4],12 (11.9) n (%)
same,"Upper respiratory tract infection, Grade ≥3",[4],0 n (%)
same,"Urinary tract infection, All Grades",[4],14 (13.9) n (%)
same,"Urinary tract infection, Grade ≥3",[4],1 (1.0) n (%)
same,"Vomiting, All Grades",[4],32 (31.7) n (%)
same,"Vomiting, Grade ≥3",[4],1 (1.0) n (%)
same,Patients with a grade ≥3 AE,"QD dosage cohort, dose escalation (N=19)",73.7%
same,Treatment-related AEs leading to dose interruptions,QD dosage group (N=19),57.9%
same,Treatment-related AEs leading to dose reductions,QD dosage group (N=19),5.3%
same,"Diarrhea, AE",QD dosage group overall (N=19),47.4%
same,"Fatigue, AE",QD dosage group overall (N=19),68.4%
same,"Nausea, AE",QD dosage group overall (N=19),73.7%
same,Maximum tolerated dose (MTD),QD dosing,160 mg
same,Recommended Phase 2 dose (RP2D),QD dosing,120 mg
same,"Abdominal pain, AE of any grade",[5],9 (20.0) n (%)
same,"Anaemia, AE of any grade",[5],15 (33.3) n (%)
same,"Ascites, AE of any grade",[5],5 (11.1) n (%)
same,"Back pain, AE of any grade",[5],4 (8.9) n (%)
same,"Constipation, AE of any grade",[5],8 (17.8) n (%)
same,"Cough, AE of any grade",[5],4 (8.9) n (%)
same,"Decreased appetite, AE of any grade",[5],5 (11.1) n (%)
same,"Diarrhoea, AE of any grade",[5],13 (28.9) n (%)
same,Dose-limiting toxicity,[5],4 (8.9) n (%)
same,"Dyspnoea, AE of any grade",[5],3 (6.7) n (%)
same,"Fatigue, AE of any grade",[5],15 (33.3) n (%)
same,"Headache, AE of any grade",[5],4 (8.9) n (%)
same,"Hypoalbuminemia, AE of any grade",[5],3 (6.7) n (%)
same,"Hypomagnesemia, AE of any grade",[5],4 (8.9) n (%)
same,"Hypophosphatemia, AE of any grade",[5],3 (6.7) n (%)
same,"Increased AST, AE of any grade",[5],3 (6.7) n (%)
same,"Muscle spasms, AE of any grade",[5],4 (8.9) n (%)
same,"Nausea, AE of any grade",[5],29 (64.4) n (%)
same,"Neutropenia, AE of any grade",[5],6 (13.3) n (%)
same,"Non-cardiac chest pain, AE of any grade",[5],3 (6.7) n (%)
same,"Pain in extremity, AE of any grade",[5],3 (6.7) n (%)
same,"Peripheral sensory neuropathy, AE of any grade",[5],3 (6.7) n (%)
same,"Pleural effusion, AE of any grade",[5],4 (8.9) n (%)
same,"Pyrexia, AE of any grade",[5],4 (8.9) n (%)
same,Treatment-emergent AE,[5],45 (100.0) n (%)
same,Treatment-emergent AE: Grade 3 or higher,[5],28 (62.2) n (%)
same,Treatment-emergent AE: Leading to death,[5],4 (8.9) n (%)
same,Treatment-emergent AE: Leading to dose interruption,[5],27 (60.0) n (%)
same,Treatment-emergent AE: Leading to dose modification,[5],27 (60.0) n (%)
same,Treatment-emergent AE: Leading to dose reduction,[5],3 (6.7) n (%)
same,Treatment-emergent AE: Leading to treatment discontinuation,[5],3 (6.7) n (%)
same,Treatment-emergent AE: Serious,[5],25 (55.6) n (%)
same,Treatment-related AE,[5],35 (77.8) n (%)
same,Treatment-related AE: Grade 3 or higher,[5],10 (22.2) n (%)
same,Treatment-related AE: Leading to death,[5],0 (0.0) n (%)
same,Treatment-related AE: Leading to dose interruption,[5],14 (31.1) n (%)
same,Treatment-related AE: Leading to dose modification,[5],14 (31.1) n (%)
same,Treatment-related AE: Leading to dose reduction,[5],3 (6.7) n (%)
same,Treatment-related AE: Leading to treatment discontinuation,[5],2 (4.4) n (%)
same,Treatment-related AE: Serious,[5],3 (6.7) n (%)
same,"Upper respiratory tract infection, AE of any grade",[5],8 (17.8) n (%)
same,"Urinary tract infection, AE of any grade",[5],8 (17.8) n (%)
same,"Vomiting, AE of any grade",[5],16 (35.6) n (%)
same,Dose-limiting toxicity,[6],1 (5.3) n (%)
same,Treatment-emergent AE,[6],19 (100.0) n (%)
same,Treatment-emergent AE: Grade 3 or higher,[6],14 (73.7) n (%)
same,Treatment-emergent AE: Leading to death,[6],0 (0.0) n (%)
same,Treatment-emergent AE: Leading to dose interruption,[6],13 (68.4) n (%)
same,Treatment-emergent AE: Leading to dose modification,[6],13 (68.4) n (%)
same,Treatment-emergent AE: Leading to dose reduction,[6],1 (5.3) n (%)
same,Treatment-emergent AE: Leading to treatment discontinuation,[6],2 (10.5) n (%)
same,Treatment-emergent AE: Serious,[6],6 (31.6) n (%)
same,Treatment-related AE,[6],17 (89.5) n (%)
same,Treatment-related AE: Grade 3 or higher,[6],10 (52.6) n (%)
same,Treatment-related AE: Leading to death,[6],0 (0.0) n (%)
same,Treatment-related AE: Leading to dose interruption,[6],11 (57.9) n (%)
same,Treatment-related AE: Leading to dose modification,[6],11 (57.9) n (%)
same,Treatment-related AE: Leading to dose reduction,[6],1 (5.3) n (%)
same,Treatment-related AE: Leading to treatment discontinuation,[6],2 (10.5) n (%)
same,Treatment-related AE: Serious,[6],1 (5.3) n (%)
